US7365080B2, “Pharmaceutical compositions comprising thieno[2,3-c]pyridine derivatives and use thereof” (Rimonyx Pharmaceuticals Ltd., priority 2003, dated 2008)

How the values were obtained:
BALB/c mice [1] = assay: Carrageenan-induced paw edema; format: in vivo, mouse; settings: i.p. administration 60 min before carrageenan
Experimental: Acute edema was induced in the left hind paw of Balb/c mice by injecting 0.02 ml of freshly prepared solution of 2% carrageenan after 60 min of test compound administration (Torres, S. R. et al., European Journal of Pharmacology 408: 199-211, 2000). The right paw received 0.02 ml of saline, which served as a control. Carrageenan was injected under the plantar region of right hind paw and the paw thickness was measured at 2, 4 and 24 hours after carrageenan challenge using a Mitutoyo engineer's micrometer expressed as the difference between right and left pad as mean±SEM. […] A dose response curve for Compound no.

[2] = test system: immobilized heparin / L-selectin/IgG; assay: Assay 1: direct interaction with heparin, pre-incubation versus co-incubation with L-selectin; format: binding; settings: compound 0.1-200 μM, 90 min, washed before L-selectin/IgG
Experimental: Inhibitor Compounds at final concentration 0.1-200 μM were incubated in the ELISA plate for 90 min, and then washed with incubation buffer. After washing, L-selectin/IgG was added to the wells pre-incubated with compounds. At the same time, in separate control wells, L-selectin was co-incubated with inhibitor Compounds for 90 min. Following the incubation, L-selectin bound to the plate was quantified by antibody conjugated to Horse Radish Peroxidase and OD measurement as performed as described in Example 5.

BALB/c mice [3] = assay: Thioglycollate-induced leukocyte and neutrophil infiltration into mouse peritoneum; format: in vivo
Experimental: The ability of compounds of the present invention to reduce leukocyte migration to sites of acute inflammation was evaluated in BALB/c mice using a thioglycolate-induced model of peritonitis. In this animal model, interactions of L- and P-selectin with HS-GAGs have been implicated in neutrophil infiltration (Nelson, R. M., 82:3253-3258, 1993; Xie, X. et al., J. Biol. Chem., 275:34818-34825, 2000).
BALB/c mice (6 weeks old, ˜20 g in weight, 15 mice/group) received intraperitoneal injection of an inhibitor compound in 0.2 ml DMSO/Tween/sterile saline 1 hour before administration of thioglycollate (Sigma). Control groups received vehicle and sham controls received no thioglycollate. Mice were injected intraperitoneally with 1 ml of 3% thioglycollate broth (Xie, X. et al., J. Biol. Chem., 275, 34818-34825, 2000). Mice were sacrificed after 3 hours, and the peritoneal cavities were ravaged with […] of ice-cold saline containing 2 mM EDTA to prevent clotting. After red blood cell lysis, leukocytes were counted in a hemocytometer. Neutrophils were counted after staining with Türck. Data was expressed as mean±SEM, and statistical analysis was performed by Student t test. A value of P<0.05 was taken to denote statistical significance.

L-Selectin = biological target: T1, L-Selectin (Homo sapiens, UniProt P14151); assay: ELISA: inhibition of L-selectin/IgG binding to immobilized heparin (Heparin-BSA); settings: L-Selectin binding to heparin; 50 μM
T1 construct: purchased Research and Development Systems 728-LS
T1 sequence (P14151 39-332 limits assumed): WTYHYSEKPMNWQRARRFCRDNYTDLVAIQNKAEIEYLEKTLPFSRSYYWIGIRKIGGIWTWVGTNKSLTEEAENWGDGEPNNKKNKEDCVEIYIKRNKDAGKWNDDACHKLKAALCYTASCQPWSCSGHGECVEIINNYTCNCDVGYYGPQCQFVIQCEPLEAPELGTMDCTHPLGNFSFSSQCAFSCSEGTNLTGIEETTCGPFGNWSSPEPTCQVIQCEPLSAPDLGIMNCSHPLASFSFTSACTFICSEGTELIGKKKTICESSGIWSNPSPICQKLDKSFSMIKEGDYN
Experimental: The inhibitory effect of the compounds of the present invention can be evaluated by several methods in vitro. One assay for measuring GAG-ECAM binding, exemplified herein below, detects the binding of L selectin/IgG to immobilized heparin. Another assay utilizes immobilized L-selectin, or L-selectin fused to protein domains other than IgG. The amount of bound L-selectin is determined by an ELISA assay using, for example, a monoclonal antibody raised against L-selectin, which is conjugated to horseradish peroxidase. […] The Dregg-55 antibody was also shown to inhibit L-selectin-dependent adhesion in vitro, neutrophil accumulation in vitro and inflammation in vivo (Co M. S. et al, Immunotechnology 493: 253-266, 1999).
An in vitro assay was used to assess the ability of test compounds according to formula I to inhibit the interactions of L-selectin with HS-GAGs. The assay was suitable for determining the concentration required for 50% inhibition (IC-50) for each specific compound. In the assay, the GAG used was heparin. Thus, porcine intestinal mucosa heparin conjugated to Bovine Serum Albumin (Heparin-BSA; Sigma Cat. No. H0403) at […] in Phosphate Buffered Saline (PBS; pH 6.5) was added to a 96 well polystyrene ELISA plate (NUNC Cat. No. 442404; 0.1 ml per well) and incubated Over Night (ON) at 4° C. Following the incubation, the plate was washed thoroughly, by immersion, with de-ionized water and PBS (pH 6.5). The ELISA plate was then blocked with BSA (ICN Cat. No.160069, 3%, 200 μl per well) for 1 hour at Room Temperature (RT). Following blocking, the plate was washed with de-ionized water, and then with PBS (pH 6.5) containing Tween 20 (Sigma Cat. No. P-1379, 0.05%). Compounds were synthesized or purchased from ChemDiv Labs (San Diego, Calif.), dissolved in DMSO, diluted in PBS and added to the wells at various concentrations in the range of 0.01 to 300 μM. Recombinant Human L-Selectin/IgG (Research and Development Systems Cat. No.728-LS) dissolved in PBS supplemented with BSA (0.1%) and calcium chloride (1 mM) was added to the ELISA plate (100 μl per well) and incubated for 60 minutes at RT with shaking. Following incubation, the plate was washed with de-ionized water and three times with PBS (pH 6.5) containing Tween 20. Anti-Human IgG Peroxidase Conjugate (1:5000; Sigma Product No. A8667) diluted in PBS supplemented with BSA (0.1%) and calcium chloride (1 mM) was added to the ELISA plate (100 μl per well) and incubated for 30 minutes at RT with shaking. The plate was then washed with de-ionized water and three times with PBS (pH 6.5) containing Tween 20. The peroxidase substrate cromogen, TMB (Dako Cat. No. S1599) was added (100 μl per well) to the ELISA plate and incubated at room temperature. After 15 minutes ELISA Stop Solution (hydrochloric acid 1N, sulfuric acid 3N) was added (200 μl per well) to stop the peroxidase catalyzed colorimetric reaction. The Optical Density (OD) of the samples was measured at 450 nm using an ELISA plate reader (Dynatech MR5000). Data were analyzed with Graphpad Prism software and IC-50 values were established. The P-selectin assay was carried out in a similar fashion, except that Recombinant Human P-Selectin/IgG (Research and Development Systems Cat.No.137-PS) was used.

Mice = assay: Delayed-type hypersensitivity (oxazolone, ear-swelling test); format: in vivo, mouse; settings: 3 mg/kg iv, 24 hours after challenge
Experimental: Mice (15 animals per group) were sensitized by topical application of a 2% oxazolone (4-ethoxymethylene-2-phenyl-2-oxazoline-5-one; Sigma, St Louis, Mo.) solution in acetone/olive oil (4:1 vol/vol) to shaved abdomen (50 μl) and to each paw (5 μl) (Lange-Asschenfeldt B. et al., Blood 99:538-545, 2002). Five days after sensitization, right ears were challenged by topical application of 10 μl of a 1% oxazolone solution, whereas left ears were treated with vehicle alone. Compounds were administered 1 hr prior to challenge. The extent of inflammation was measured 24 hours after challenge, using the mouse ear-swelling test. The unpaired Student t test was used for statistical analyses.

With `CCCCN(CC)S(=O)(=O)c1ccc(C(=O)Nc2sc3c(c2-c2nc4ccccc4s2)CCN(CC)C3)cc1` [Compound 5, 2-[[4-[(ethylbutylamino)sulfonyl]benzoyl]amino]-3-(benzothiazol-2-yl)-6-ethyl-4,5,6,7-tetrahydrothieno[2,3-c]pyridine] the “carrageenan induced paw edema (in words)” value (BALB/c mice [1]) was “anti-inflammatory properties”, the “level of inhibition of L-selectin binding to heparin, pre-incubation versus co-incubation” value [2] was “same level of inhibition” and the “reduction of leukocyte infiltration” value (BALB/c mice [3]; 2 mg/kg intraperitoneal) was 25%. For the same molecule, the “reduction of leukocyte infiltration” value (BALB/c mice [3]; 10 mg/kg intraperitoneal) was 50%, the “reduction of leukocyte infiltration” value (BALB/c mice [3]; 50 mg/kg intraperitoneal) was 75% and the “neutrophil infiltration in mouse peritonitis (in words)” value (BALB/c mice [3]; FIG. 4, 2, 10, 50 mg/kg) was “dose-dependent inhibition”. The “leukocyte migration into the peritoneal cavity (in words)” value (BALB/c mice [3]; intraperitoneal, 1 hour before thioglycollate, 3 hours) was “inhibited efficiently”, the inhibition at 50 µM (L-Selectin) was 62% and the “DTH, % of control value” (Mice) was 56 % of control value.
